Data published in US12382888B2, “Compositions and methods for modulating immunity in plants” (Boyce Thompson Institute for Plant Research, Inc., priority 2013, dated 2025).
“Also recorded” adds a separate entry of the source. Where two headings read alike, the source gives them in different places.

Columns and labels:
[1] = tested on: Phytophthora infestans (US22); type: in vivo; conditions: for resistance to P. infestans: root treatment, at the concentrations tested; for resistance to US22 P. infestans: at the concentration tested
[2] = tested on: Phytophthora infestans (US22); type: in vivo

With `CC1O[C@@H](O[C@@H](C)CCCCCCCCC(=O)O)C(O)C[C@H]1O` (stereo in doubt) [ascr #18, (10R)-(3′R,5′R-dihydroxy-6′S-methyl-(2H)-tetrahydropyran-2-yloxy)-undecanoic Acid] the “P. infestans resistance in tomato” value ([1]; tomato (M82), root pretreatment with 0.01 or 1 μM ascaroside) was “+”, the “resistance to P. infestans” value ([1]; tomato cv. M82) was “enhanced resistance” and the “protection against US22 P. infestans (sporangia number, lesion size)” value ([1]; tomato cv. M82, roots pretreated 48 hours, 1 nM and 10 nM) was “strong protection”. The “resistance to virulent US22 P. infestans” value ([1]; tomato cv. M82 and Rio Grande, root immersion 0.01 μM 48 hours before inoculation) was “enhances resistance”, the “resistance to virulent US22 P. infestans (lesion size 5 dpi, sporangia 6 dpi)” value ([1]; tomato cv. Rio Grande, root immersion 0.01 μM 48 hours before) was “enhanced resistance” and the enhancement of resistance ([1]; tomato, 100 nM) was “reduced or lost”. For the same compound, the “ascr #18 concentrations of maximal protection/resistance” value ([1]; tomato, P. infestans US22) was 1 to 10 nM, the “concentration that enhanced resistance (as little as)” value ([1]; tomato, P. infestans US22) was 10 pM and the “protection against P. infestans” value ([1]; tomato, higher concentrations) was “decreased”. The “protection against virulent P. infestans” value ([2]; potato cv. Desiré, Eva or Yukon Gold, 10 nM by root immersion or foliar spray 48 hours prior) was “provided protection; also recorded: protects against P. infestans-induced late blight” and the “resistance to virulent US22 P. infestans (lesion size 5 dpi)” value ([2]; potato cv. Désirée, root immersion 0.01 μM 48 hours before) was “enhanced resistance”.

`CC1O[C@@H](O[C@H](C)CCCC/C=C/C(=O)O)C(O)C[C@H]1O` (stereo partly shown) [ascr #3] was tested, and the “resistance of M82 against P. infestans” value ([1]; 0.01 μM) was “did not have a significant effect”, the “P. infestans resistance in tomato” value ([1]; in vivo) was “−” and the “resistance to P. infestans” value ([1]; tomato cv. M82) was “neither ascr #3 nor oscr #9 affected resistance”.

`C[C@H](CCC(=O)O)O[C@@H]1O[C@@H](C)[C@H](O)C[C@H]1O` [ascr #9] was tested, and the “P. infestans resistance in tomato” value ([1]; in vivo) was “+”, the “resistance to US22 P. infestans (lesion size, sporangia number)” value ([1]; tomato cv. M82, root immersion 1 μM 48 hours before, 7 dpi) was “enhances resistance” and the “resistance to P. infestans” value ([1]; tomato cv. M82) was “enhanced resistance”.

In the case of `CC1O[C@@H](O[C@H](C)CCCCCCC(=O)O)C(O)C[C@H]1O` (stereo partly shown) [ascr #10], the “resistance to US22 P. infestans” value ([1]; tomato cv. M82) is reported as “not”.

For `CC1O[C@@H](O[C@H](C)CCCCCCCCC(=O)NCCO)C(O)C[C@H]1O` (stereo partly shown) [easc #18], the “resistance to virulent US22 P. infestans (lesion size 5 dpi, sporangia 6 dpi)” value ([1]; in vivo) was “enhanced resistance”.

With `CC1O[C@@H](OCCCCC(=O)O)C(O)C[C@H]1O` (stereo partly shown) [oscr #9] the “P. infestans resistance in tomato” value ([1]; in vivo) was “−”, the “resistance to US22 P. infestans” value ([1]; tomato cv. M82) was “not” and the “resistance to P. infestans” value ([1]; tomato cv. M82) was “neither ascr #3 nor oscr #9 affected resistance”.
